Experimental data published in patent publication US7119123B2, “Antimicrobially active 4-methyl-4-aryl-2-pentanols, their preparation and use” (Symrise GmbH & Co. KG, priority 2004, dated 2006).

Tests used:
Corynebacterium xerosis = assay: agar dilution method, MIC; assay type: cell-based; settings: ATCC7711; Corynebacterium xerosis ATCC 7711; Mueller-Hinton agar, aerobic, 18 h at 36° C.; read-out: MIC (minimum inhibitory concentration)
Protocol: (§1) Petri dishes 5.5 cm in diameter were charged with 8.7 ml freshly prepared Mueller-Hinton agar (Merck, Ref. 1.05437 or Wilkins-Chalgren agar boillon (sic), Oxoid, Ref. CM 643, supplemented with 10 g agar-agar/liter) kept liquid at 50° C., to which the various concentrations of the diluted samples were added in 3.3% (V/V)=0.3 ml. Mueller-Hinton agar that contained 3% Tween80 (Merck, Ref. 8.22 187) was used for the test germ Malassezia furfur.
(§2) 2.6 ml of the 3.3% samples were diluted with ethanol (96%; Merck, Ref. 1.00971). The further test concentrations of the particular dilution series, which were prepared in the form of geometric series, were prepared by progressive 2:1 dilution with ethanol (96%).
(§3) The concentrations indicated below relate to the pure substance and have been converted to ppm. Two agar plates were poured per test concentration and nutrient medium.
(§4) After solidification and drying (approximately 1 h at 37° C.), the test plates were inoculated in point form with, in each case, 1 μl of the test germ suspensions listed in the examples below. To check purity and identity, the bacteria (Brevibacterium epidermidis, Corynebakterium (sic) xerosis, Staphylococcus aureus; Staphylococcus epidermidis) which grow aerobically, were [lacuna] on Columbia blood agar (BioMérieux, Ref. 43049). The mould Aspergillus niger, the yeast Candida albicans and the skin fungus Trichophyton mentagrophytes were cultivated on Sabouraud agar (BioMérieux, Ref. 43555). Malassezia furfur was cultured on Sabourad-HLT agar with inhibitors (addition of Tween80: 1%; lecithin: 0.3%; histidine: 0.1%; Merck, Ref. 1.18368). Propionibacterium acnes was cultivated on Schaedler agar (BioMérieux, Ref. 43273). Further data on the test germs can be taken from Table 1.
(§5) The preparation of the test germ suspensions of the bacterial germs that grow aerobically was carried out by incubation of Mueller-Hinton broth (Merck, Ref. 1.10293) which had been inoculated with a few individual colonies of the relevant test germs, at 36° C. After a distinct turbidity had been obtained, sterile nutrient broth was added to the suspensions in such an amount that the turbidity thereof corresponded to McFarland Standard 0.5 (approx. 1.5×10^8 CFU/ml).
(§6) All test germ suspensions with the exception of Propionibacterium acnes were diluted again 1:10 with sterile broth and the germ count thereof was determined by the surface method using a Spiralometer (results: see Table 1).
(§7) The MIC (minimum inhibitory concentration) was regarded as the lowest concentration of active compound at which macroscopically there is no growth. Minimal, barely visible growth or few small individual colonies were evaluated as inhibition.
(§8) The MIC values of various (R/S)-4-methyl-4-aryl-2-pentanols were determined in accordance with the general test conditions described under 2.1. (c.f. Table 3; MIC values for (R/S[lacuna]-4-methyl-4-phenyl-2-pentanol, for (R/S)-4-methyl-4-p-tolyl-2-pentanol, (R/S)-4-methyl-4-p-cumenyl-2-pentanol and (R/S)-4-methyl-4-(4-n-butylphenyl)-2-pentanol).

[1] = tested on: Staphylococcus epidermidis; assay: agar dilution method, MIC; assay type: cell-based; settings: ATCC12228; Staphylococcus epidermidis ATCC 12228; Mueller-Hinton agar, aerobic, 18 h at 36° C.; read-out: MIC (minimum inhibitory concentration)
Protocol: as §1, §2, §3, §4, §5, §6, §7, §8

[2] = tested on: Brevibacterium epidermidis; assay: agar dilution method, MIC; assay type: cell-based; settings: ATCC35514; Brevibacterium epidermidis ATCC 35514; Mueller-Hinton agar, aerobic, 18 h at 36° C.; read-out: MIC (minimum inhibitory concentration)
Protocol: as §1, §2, §3, §4, §5, §6, §7, §8

Propionibacterium acnes = assay: agar dilution method, MIC; assay type: cell-based; settings: for MIC: Cutibacterium acnes, ATCC11829, Propionibacterium acnes ATCC 11829, Wilkins-Chalgren agar, anaerobic, 72 h at 36° C., read-out: MIC (minimum inhibitory concentration); for activity against Propionibacterium acnes (in words): text comment on Table 3
Protocol: as §1, §2, §3, §4
(§9) For preparation of the other test germ suspensions, the test strains were cultured on the abovementioned solid nutrient medium, harvested using sterile swabs and taken up or diluted in such an amount of Mueller-Hinton broth that the turbidity of the suspensions corresponded to McFarland standard 0.5.
as §7, §8

Escherichia coli = assay: agar dilution method, MIC; assay type: cell-based; settings: read-out: MIC (minimum inhibitory concentration)
Protocol: as §1, §2, §3, §7, §8

Pseudomonas aeruginosa = assay: agar dilution method, MIC; assay type: cell-based; settings: read-out: MIC (minimum inhibitory concentration)
Protocol: as §1, §2, §3, §7, §8

Aspergillus niger = assay: agar dilution method, MIC; assay type: cell-based; settings: for MIC: ATCC16404, Aspergillus niger ATCC 16404, Mueller-Hinton agar, aerobic, 48 h at 30° C., read-out: MIC (minimum inhibitory concentration); for effectiveness against moulds (in words): comparison among substances 2-5
Protocol: as §1, §2, §3, §4, §9, §6, §7, §8

[3] = tested on: Trichophyton mentagrophytes; assay: agar dilution method, MIC; assay type: cell-based; settings: CBS26379; Trichophyton mentagrophytes CBS 26379; Mueller-Hinton agar, aerobic, 72 h at 30° C.; read-out: MIC (minimum inhibitory concentration)
Protocol: as §1, §2, §3, §4, §9, §6, §7, §8

Malassezia furfur = assay: agar dilution method, MIC; assay type: cell-based; settings: DSM6171; Malassezia furfur DSM 6171; Mueller-Hinton agar + 3% Tween 80, aerobic, 72 h at 30° C.; read-out: MIC (minimum inhibitory concentration)
Protocol: as §1, §2, §3, §4, §9, §6, §7, §8

Candida albicans = assay: agar dilution method, MIC; assay type: cell-based; settings: for MIC: ATCC10231, Candida albicans ATCC 10231, Mueller-Hinton agar, aerobic, 48 h at 30° C., read-out: MIC (minimum inhibitory concentration); for effectiveness against yeasts such as Candida albicans (in words): comparison among substances 2-5
Protocol: as §1, §2, §3, §4, §9, §6, §7, §8

glycolysis = settings: known from J. Dental Res. 40,384 (1961); cariostatic; cited from earlier work

Row | MIC (Corynebacterium xerosis) | MIC [1] | MIC [2] | MIC (Propionibacterium acnes) | MIC (Escherichia coli) | MIC (Pseudomonas aeruginosa) | MIC (Aspergillus niger) | MIC [3] | MIC (Malassezia furfur) | MIC (Candida albicans) | SMILES | activity against Propionibacterium acnes (in words) (Propionibacterium acnes) | effectiveness against moulds (in words) (Aspergillus niger) | effectiveness against yeasts such as Candida albicans (in words) (Candida albicans) | glycolysis-inhibiting action (in words) (glycolysis)
1 | 1100 µg/mL | 1100 µg/mL | 1100 µg/mL | 1100 µg/mL | > 1100 µg/mL | > 1100 µg/mL | 550 µg/mL | 550 µg/mL | 69 µg/mL | 1100 µg/mL | CC(O)CC(C)(C)c1ccccc1 (racemic) [Formula 2, (R,S)-4-methyl-4-phenyl-2-pentanol] | an activity can also be observed | most effective | most effective | a certain glycolysis-inhibiting action
2 | 275 µg/mL | 550 µg/mL | 550 µg/mL | 550 µg/mL | > 1100 µg/mL | > 1100 µg/mL | 550 µg/mL | 138 µg/mL | 69 µg/mL | 1100 µg/mL | Cc1ccc(C(C)(C)CC(C)O)cc1 (racemic) [Formula 3, (R,S)-4-methyl-4-p-tolyl-2-pentanol] | an activity can also be observed | most effective | most effective | 
3 | 69 µg/mL | 138 µg/mL | 138 µg/mL | 138 µg/mL | > 1100 µg/mL | > 1100 µg/mL | > 1100 µg/mL | 69 µg/mL | 550 µg/mL | > 1100 µg/mL | CC(O)CC(C)(C)c1ccc(C(C)C)cc1 (racemic) [Formula 4, (R,S)-4-methyl-4-p-cumenyl-2-pentanol] |  |  |  | 
4 | 69 µg/mL | 1100 µg/mL | 550 µg/mL | > 1100 µg/mL | > 1100 µg/mL | > 1100 µg/mL | > 1100 µg/mL | 69 µg/mL | 550 µg/mL | > 1100 µg/mL | CCCCc1ccc(C(C)(C)CC(C)O)cc1 (racemic) [Formula 5, (R,S)-4-methyl-4-(4-n-butylphenyl)-2-pentanol] | an activity can also be observed |  |  | 
